The target in assay [1] is Cyclin-dependent kinase 18 (Homo sapiens) (UniProt Q07002). Conditions: Compound concentration 1000.0 nM.
Assay [2] deals with Tyrosine-protein kinase ABL1 (Homo sapiens), P00519 [M351T]. As to conditions: Compound concentration 1000.0 nM.
For assay [3], the target named is Mitotic checkpoint serine/threonine-protein kinase BUB1 (Homo sapiens) (UniProt O43683). Conditions: Compound concentration 1000.0 nM.
Assay [4] concerns the target Mitogen-activated protein kinase kinase kinase 15 (Homo sapiens) (UniProt Q6ZN16). Conditions: Compound concentration 1000.0 nM.
Assay [5] concerns the target Serine/threonine-protein kinase/endoribonuclease IRE1 (Homo sapiens) (UniProt O75460). As to conditions: Compound concentration 1000.0 nM.
The subject of assay [6] is Tyrosine-protein kinase ABL1 (Homo sapiens), P00519 [Q252H]. Conditions: Compound concentration 1000.0 nM.
In assay [7] the target is Tyrosine-protein kinase SYK (Homo sapiens) (UniProt P43405). Conditions: Compound concentration 1000.0 nM.
Assay [8] concerns the target T1, Mitogen-activated protein kinase kinase kinase 5 (Homo sapiens) (UniProt Q99683).
T1 sequence (whole entry): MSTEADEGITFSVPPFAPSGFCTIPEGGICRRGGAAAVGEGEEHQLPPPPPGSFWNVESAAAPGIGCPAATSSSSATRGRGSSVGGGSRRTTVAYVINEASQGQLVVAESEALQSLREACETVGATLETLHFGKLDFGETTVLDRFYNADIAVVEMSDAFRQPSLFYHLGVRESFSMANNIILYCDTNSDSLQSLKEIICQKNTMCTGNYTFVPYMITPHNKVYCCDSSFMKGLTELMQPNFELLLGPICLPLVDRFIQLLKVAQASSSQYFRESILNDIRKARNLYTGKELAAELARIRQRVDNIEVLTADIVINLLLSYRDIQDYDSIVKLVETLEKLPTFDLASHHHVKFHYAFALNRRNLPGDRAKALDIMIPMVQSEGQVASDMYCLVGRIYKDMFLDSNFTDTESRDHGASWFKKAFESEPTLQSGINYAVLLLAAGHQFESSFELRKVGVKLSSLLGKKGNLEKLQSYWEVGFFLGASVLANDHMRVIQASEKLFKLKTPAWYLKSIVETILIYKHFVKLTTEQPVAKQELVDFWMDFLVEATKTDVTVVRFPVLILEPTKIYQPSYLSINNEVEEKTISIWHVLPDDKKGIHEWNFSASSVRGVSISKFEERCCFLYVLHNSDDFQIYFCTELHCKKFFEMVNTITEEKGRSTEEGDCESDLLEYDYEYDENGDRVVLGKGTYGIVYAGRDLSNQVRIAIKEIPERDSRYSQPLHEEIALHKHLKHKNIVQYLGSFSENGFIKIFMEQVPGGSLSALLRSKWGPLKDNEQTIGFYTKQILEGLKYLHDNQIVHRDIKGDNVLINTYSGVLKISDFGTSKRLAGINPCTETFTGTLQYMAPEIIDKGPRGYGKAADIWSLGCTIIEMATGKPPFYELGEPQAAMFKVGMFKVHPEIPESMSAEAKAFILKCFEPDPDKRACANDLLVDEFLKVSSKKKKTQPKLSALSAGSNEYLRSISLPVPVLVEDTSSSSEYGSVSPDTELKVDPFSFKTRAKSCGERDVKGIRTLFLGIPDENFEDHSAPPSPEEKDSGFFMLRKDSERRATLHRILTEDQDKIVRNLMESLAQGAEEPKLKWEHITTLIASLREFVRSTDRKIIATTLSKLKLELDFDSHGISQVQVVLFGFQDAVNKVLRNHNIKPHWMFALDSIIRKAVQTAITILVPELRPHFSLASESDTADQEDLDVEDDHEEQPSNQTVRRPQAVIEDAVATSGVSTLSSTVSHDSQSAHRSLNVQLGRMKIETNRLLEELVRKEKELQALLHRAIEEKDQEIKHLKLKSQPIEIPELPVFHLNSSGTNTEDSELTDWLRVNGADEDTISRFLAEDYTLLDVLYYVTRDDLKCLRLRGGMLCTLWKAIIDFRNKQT
As to conditions: Compound concentration 1000.0 nM.

Assay [9] addresses Serine/threonine-protein kinase LATS2 (Homo sapiens) (UniProt Q9NRM7). Conditions: Compound concentration 1000.0 nM.
Assay [10] has as its target Serine/threonine-protein kinase 32C (Homo sapiens) (UniProt Q86UX6). Conditions: Compound concentration 1000.0 nM.
Assay [11] has as its system Epidermal growth factor receptor (Homo sapiens), P00533 [L858R,T790M]. Conditions: Compound concentration 1000.0 nM.
The target of assay [12] is Casein kinase I isoform gamma-2 (Homo sapiens) (UniProt P78368). As to conditions: Compound concentration 1000.0 nM.
The target in assay [13] is D(1A) dopamine receptor (Homo sapiens) (UniProt P21728). Conditions: Compound concentration 10.0 uM.
Assay [14] deals with T2, Serine/threonine-protein kinase Sgk3 (Homo sapiens) (UniProt Q96BR1).
T2 sequence (whole entry): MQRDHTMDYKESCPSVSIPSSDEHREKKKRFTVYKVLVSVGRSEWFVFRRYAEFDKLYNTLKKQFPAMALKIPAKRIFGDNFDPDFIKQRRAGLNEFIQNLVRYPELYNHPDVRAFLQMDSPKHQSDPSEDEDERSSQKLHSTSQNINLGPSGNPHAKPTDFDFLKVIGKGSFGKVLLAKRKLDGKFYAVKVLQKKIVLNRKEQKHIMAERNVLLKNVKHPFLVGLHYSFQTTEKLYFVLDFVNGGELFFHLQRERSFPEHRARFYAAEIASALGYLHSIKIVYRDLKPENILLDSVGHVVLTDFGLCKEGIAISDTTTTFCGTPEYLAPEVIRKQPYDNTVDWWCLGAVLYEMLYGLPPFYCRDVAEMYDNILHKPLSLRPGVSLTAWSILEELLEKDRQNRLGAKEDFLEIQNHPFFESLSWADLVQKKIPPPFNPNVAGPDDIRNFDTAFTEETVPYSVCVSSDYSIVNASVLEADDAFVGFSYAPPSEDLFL
Conditions: Compound concentration 1000.0 nM.

For assay [15], the species on record is Rattus norvegicus. Conditions: Compound concentration 10.0 uM.
For assay [16], the target named is Membrane-associated tyrosine- and threonine-specific cdc2-inhibitory kinase (Homo sapiens) (UniProt Q99640). Conditions: Compound concentration 1000.0 nM.
In assay [17] the target is Tyrosine-protein kinase Fgr (Homo sapiens) (UniProt P09769). Conditions: Compound concentration 1000.0 nM.
Assay [18] deals with Insulin receptor (Homo sapiens) (UniProt P06213). As to conditions: Compound concentration 1000.0 nM.
Assay [19] has as its target STE20/SPS1-related proline-alanine-rich protein kinase (Homo sapiens) (UniProt Q9UEW8). Conditions: Compound concentration 1000.0 nM.
The target of assay [20] is Mitogen-activated protein kinase kinase kinase 6 (Homo sapiens) (UniProt O95382). Conditions: Compound concentration 1000.0 nM.
Chain of Mitogen-activated protein kinase kinase kinase 6 (Homo sapiens) (O95382 whole entry): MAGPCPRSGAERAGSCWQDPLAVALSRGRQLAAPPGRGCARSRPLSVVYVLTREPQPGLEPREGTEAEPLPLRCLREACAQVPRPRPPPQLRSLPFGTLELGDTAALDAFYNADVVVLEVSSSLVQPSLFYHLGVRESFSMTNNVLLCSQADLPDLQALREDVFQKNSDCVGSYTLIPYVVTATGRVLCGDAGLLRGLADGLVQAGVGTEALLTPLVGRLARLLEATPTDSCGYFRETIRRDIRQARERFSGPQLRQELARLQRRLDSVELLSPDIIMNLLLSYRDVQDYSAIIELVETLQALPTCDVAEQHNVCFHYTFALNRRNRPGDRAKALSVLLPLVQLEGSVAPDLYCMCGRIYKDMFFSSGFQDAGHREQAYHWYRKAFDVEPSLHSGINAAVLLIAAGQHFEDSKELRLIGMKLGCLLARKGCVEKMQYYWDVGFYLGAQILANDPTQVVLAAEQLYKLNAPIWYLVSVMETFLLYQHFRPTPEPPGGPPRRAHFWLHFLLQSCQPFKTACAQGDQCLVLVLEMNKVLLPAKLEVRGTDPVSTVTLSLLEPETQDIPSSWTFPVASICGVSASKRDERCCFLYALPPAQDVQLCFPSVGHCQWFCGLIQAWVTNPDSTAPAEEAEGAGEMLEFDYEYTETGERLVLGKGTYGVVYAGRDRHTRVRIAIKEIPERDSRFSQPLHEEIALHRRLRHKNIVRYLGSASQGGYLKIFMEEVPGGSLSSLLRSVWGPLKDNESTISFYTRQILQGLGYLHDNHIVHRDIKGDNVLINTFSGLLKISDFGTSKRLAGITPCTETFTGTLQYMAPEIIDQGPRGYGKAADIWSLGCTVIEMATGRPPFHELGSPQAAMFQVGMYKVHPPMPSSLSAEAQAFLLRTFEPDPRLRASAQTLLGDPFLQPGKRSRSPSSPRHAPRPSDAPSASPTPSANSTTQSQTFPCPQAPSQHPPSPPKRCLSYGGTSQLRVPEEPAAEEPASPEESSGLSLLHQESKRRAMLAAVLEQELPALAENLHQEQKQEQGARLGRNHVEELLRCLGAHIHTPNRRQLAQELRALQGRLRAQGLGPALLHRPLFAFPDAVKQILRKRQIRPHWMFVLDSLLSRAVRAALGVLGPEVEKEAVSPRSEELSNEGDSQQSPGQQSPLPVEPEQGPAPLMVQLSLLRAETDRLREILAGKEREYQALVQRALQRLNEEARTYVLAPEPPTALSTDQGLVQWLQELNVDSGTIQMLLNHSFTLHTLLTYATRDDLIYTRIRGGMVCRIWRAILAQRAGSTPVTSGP

Chain of Membrane-associated tyrosine- and threonine-specific cdc2-inhibitory kinase (Homo sapiens) (Q99640 whole entry): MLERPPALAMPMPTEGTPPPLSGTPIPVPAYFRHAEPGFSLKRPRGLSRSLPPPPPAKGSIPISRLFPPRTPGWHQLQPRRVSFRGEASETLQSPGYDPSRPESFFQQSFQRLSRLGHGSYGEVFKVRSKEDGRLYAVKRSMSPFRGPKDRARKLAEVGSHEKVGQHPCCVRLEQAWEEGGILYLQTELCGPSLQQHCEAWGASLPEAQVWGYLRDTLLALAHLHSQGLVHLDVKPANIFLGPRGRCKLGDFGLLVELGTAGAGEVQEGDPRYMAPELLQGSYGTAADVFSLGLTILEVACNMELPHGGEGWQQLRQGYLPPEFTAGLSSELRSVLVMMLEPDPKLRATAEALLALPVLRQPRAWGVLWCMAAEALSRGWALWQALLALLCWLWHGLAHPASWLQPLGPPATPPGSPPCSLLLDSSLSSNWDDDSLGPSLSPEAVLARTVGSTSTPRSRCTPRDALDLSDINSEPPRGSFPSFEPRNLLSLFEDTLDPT
Chain of Serine/threonine-protein kinase/endoribonuclease IRE1 (Homo sapiens) (O75460 19-977 limits assumed): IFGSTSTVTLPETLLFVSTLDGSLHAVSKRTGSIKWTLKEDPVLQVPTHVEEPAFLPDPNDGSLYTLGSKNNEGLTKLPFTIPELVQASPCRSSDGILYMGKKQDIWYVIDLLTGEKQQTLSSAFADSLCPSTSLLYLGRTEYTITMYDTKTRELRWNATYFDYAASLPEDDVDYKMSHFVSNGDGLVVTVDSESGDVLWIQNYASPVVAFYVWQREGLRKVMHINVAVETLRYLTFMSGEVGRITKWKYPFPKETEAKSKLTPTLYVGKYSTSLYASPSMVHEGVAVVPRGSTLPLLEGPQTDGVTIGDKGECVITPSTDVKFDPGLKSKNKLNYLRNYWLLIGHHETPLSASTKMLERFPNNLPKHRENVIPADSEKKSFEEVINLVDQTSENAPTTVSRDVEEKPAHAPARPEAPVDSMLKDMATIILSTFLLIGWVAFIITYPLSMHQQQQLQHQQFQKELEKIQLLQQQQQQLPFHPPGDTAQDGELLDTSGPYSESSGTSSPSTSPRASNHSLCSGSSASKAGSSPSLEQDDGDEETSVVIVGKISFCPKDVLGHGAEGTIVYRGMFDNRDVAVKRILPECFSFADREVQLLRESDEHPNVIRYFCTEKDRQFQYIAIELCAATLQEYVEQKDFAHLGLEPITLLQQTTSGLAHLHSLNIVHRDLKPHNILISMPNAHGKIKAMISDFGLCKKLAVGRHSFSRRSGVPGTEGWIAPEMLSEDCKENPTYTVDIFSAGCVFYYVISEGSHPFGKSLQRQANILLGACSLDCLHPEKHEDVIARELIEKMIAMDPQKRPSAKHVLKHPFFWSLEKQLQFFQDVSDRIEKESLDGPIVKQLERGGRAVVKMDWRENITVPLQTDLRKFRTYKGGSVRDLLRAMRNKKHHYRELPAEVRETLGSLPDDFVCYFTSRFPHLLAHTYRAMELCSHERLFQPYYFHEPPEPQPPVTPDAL
Chain of Serine/threonine-protein kinase 32C (Homo sapiens) (Q86UX6 whole entry): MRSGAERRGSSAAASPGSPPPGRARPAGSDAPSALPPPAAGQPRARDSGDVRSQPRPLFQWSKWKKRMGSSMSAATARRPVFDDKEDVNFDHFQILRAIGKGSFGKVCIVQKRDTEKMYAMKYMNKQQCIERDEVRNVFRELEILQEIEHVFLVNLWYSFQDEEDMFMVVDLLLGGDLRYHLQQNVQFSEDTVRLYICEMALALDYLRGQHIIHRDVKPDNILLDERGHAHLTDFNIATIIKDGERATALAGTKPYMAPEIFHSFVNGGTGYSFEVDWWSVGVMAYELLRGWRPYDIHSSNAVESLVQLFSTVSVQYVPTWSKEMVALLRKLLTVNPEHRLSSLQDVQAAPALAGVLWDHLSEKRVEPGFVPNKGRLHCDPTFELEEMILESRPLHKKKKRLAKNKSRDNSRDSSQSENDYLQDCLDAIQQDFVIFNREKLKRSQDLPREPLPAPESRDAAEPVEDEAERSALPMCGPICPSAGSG
Chain of Mitogen-activated protein kinase kinase kinase 15 (Homo sapiens) (Q6ZN16 whole entry): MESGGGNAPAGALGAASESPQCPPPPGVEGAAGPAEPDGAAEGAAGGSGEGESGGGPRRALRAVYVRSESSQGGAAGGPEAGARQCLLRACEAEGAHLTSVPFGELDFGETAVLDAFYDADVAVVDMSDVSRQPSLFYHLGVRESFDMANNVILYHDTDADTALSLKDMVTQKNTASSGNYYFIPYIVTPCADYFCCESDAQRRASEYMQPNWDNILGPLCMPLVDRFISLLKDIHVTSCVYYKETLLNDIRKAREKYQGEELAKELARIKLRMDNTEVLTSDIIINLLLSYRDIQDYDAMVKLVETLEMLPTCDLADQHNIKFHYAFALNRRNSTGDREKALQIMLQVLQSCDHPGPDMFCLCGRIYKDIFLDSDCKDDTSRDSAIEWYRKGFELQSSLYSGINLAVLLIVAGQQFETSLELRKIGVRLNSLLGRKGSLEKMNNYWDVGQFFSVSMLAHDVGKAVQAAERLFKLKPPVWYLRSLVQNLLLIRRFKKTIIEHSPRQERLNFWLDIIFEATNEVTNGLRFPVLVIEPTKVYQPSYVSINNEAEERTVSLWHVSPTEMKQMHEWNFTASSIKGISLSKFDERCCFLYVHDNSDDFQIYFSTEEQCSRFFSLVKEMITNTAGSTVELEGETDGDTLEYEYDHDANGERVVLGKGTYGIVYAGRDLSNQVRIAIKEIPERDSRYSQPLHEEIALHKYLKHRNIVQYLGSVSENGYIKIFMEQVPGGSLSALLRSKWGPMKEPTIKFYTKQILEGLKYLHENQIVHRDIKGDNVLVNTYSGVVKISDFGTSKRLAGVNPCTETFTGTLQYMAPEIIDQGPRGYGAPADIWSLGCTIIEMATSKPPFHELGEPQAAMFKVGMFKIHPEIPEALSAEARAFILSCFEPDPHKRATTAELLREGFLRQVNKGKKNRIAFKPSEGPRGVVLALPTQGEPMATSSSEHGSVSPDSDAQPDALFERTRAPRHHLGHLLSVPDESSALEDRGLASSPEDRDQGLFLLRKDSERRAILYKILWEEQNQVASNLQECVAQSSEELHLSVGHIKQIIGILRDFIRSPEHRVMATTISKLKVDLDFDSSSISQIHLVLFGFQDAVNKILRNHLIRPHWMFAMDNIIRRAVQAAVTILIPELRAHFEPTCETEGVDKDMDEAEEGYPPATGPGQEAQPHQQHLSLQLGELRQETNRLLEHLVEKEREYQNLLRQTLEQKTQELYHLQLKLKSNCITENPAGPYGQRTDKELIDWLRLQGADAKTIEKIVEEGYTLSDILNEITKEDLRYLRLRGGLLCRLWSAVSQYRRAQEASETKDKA
Chain of D(1A) dopamine receptor (Homo sapiens) (P21728 whole entry): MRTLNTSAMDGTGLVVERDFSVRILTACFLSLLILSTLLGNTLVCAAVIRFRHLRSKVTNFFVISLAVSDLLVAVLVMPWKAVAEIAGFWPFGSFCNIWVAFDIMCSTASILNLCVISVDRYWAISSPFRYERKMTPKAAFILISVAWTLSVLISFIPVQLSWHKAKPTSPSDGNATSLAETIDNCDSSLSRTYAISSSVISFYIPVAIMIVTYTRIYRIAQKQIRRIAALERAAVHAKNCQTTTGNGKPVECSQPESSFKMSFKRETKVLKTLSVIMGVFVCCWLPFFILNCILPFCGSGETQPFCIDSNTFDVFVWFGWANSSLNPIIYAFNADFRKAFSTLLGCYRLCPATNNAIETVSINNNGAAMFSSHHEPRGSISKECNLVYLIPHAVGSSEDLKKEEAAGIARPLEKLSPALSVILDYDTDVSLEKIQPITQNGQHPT

The term inhibition denotes the relative decrease from the control value, in per cent. Consider `CN(C)C(=O)Cn1cc(-c2nc(C3(c4ccc(-c5cnc(N)nc5)cc4)CC3)no2)cn1` [BI 0153], for which the residual activity was 83% in [1]; 100% in [2]; 75% in assay [3]; 100% in assay [4]; 69% in assay [5]; 100% in assay [6]. Also, the residual activity in assay [7] was 77%; in assay [8], 91%; in [9], 46%; in assay [10] it was 100%; in assay [11] it was 97%; in assay [12], 82%. Moreover, the residual activity is 75% in [14]; 90% in [16]; 100% in assay [17]; 90% in [18]; 100% in [19]; 78% in assay [20]. The values for the inhibition in assay [13] and in assay [15] were -6.69% and 7.97%, respectively.
Consider `CN(C)C(=O)Cn1cc(-c2nc([C@@](C)(c3ccc(-c4cnc(N)nc4)cc3)C3CC3)no2)cn1` [BI 665915], for which the residual activity in assay [1] was 100%; in [2], 80%; in assay [3] it was 75%; in [4] it was 99%; in [5], 86%; in assay [6], 83%. For the same compound, the residual activity is 73% in [7]; 99% in assay [8]; 74% in assay [9]; 88% in assay [10]; 93% in assay [11]; 100% in assay [12]. The residual activity in assay [14] is 76%; in assay [16] it was 88%; in assay [17], 100%; in [18], 89%; in [19], 81%; in assay [20], 90%. Further, the results for the inhibition in assay [13] and in assay [15] were 4.55% and 1.51%, respectively.

The record behind these values is ChEMBL document CHEMBL4507276 (2021).
